Biological target: T1, estrogen receptors (Homo sapiens, UniProt P03372)
T1 construct: expressed in transfected cells; host or cells: HELN-ERα cell line (HeLa-derived, per own knowledge of Escande et al. 2006)
T1 sequence (P03372 1-595): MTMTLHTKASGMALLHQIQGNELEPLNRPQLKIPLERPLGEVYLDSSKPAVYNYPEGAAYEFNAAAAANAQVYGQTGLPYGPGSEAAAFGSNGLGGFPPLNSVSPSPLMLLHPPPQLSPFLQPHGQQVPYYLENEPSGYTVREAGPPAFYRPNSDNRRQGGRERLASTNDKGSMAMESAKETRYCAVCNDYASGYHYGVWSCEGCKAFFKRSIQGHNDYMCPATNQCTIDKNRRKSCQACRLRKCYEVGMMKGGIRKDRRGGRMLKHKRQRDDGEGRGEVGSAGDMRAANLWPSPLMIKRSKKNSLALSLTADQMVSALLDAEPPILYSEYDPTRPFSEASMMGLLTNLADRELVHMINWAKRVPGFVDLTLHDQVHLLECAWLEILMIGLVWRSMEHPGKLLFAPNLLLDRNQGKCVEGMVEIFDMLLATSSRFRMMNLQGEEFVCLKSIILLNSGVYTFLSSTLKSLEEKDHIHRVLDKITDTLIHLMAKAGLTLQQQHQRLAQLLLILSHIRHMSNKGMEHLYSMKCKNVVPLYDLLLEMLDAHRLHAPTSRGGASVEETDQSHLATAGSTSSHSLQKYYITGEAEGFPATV
Test: Test for toxicity with respect to estrogen receptors on the HELN-ERα cell line
Format: cell-based
Details: for interaction with estrogen receptors (% of antagonist activity with respect to estradiol (E2) at 10 nM): FIG. 12, result in words
Protocol: A test for toxicity with respect to estrogen receptors was carried out for the IDF, PDF, GDF and BDF macrobisphenols, according to the method set out in the publication by Molina-Molina et al., 2008 (Toxicol. Appl. Pharmacol., doi: 10.1016/j.taap.2008.07.017), on the HELN-ERα cell line, described in the publication by Escande et al., 2006 (Biochemical Pharmacology, 71, 1459-1469).
The results obtained, expressed as % of antagonist activity with respect to the activity of estradiol (E2) at 10 nM, as a function of the monomer concentration, are shown in FIG. 12.

SMILES	interaction with estrogen receptors (% of antagonist activity with respect to estradiol (E2) at 10 nM)	percentage activity with respect to the activity of estradiol (E2) at 10 nM (at 10^−5 M) [%]	percentage activity with respect to the activity of estradiol (E2) at 10 nM (at 10^−6 M) [%]
COc1cc(CCC(=O)OCCCCOC(=O)CCc2ccc(O)c(OC)c2)ccc1O [BDF, butane-1,4-di(dihydroferulate)]	interact only very little		
COc1cc(CCC(=O)OCC(O)COC(=O)CCc2ccc(O)c(OC)c2)ccc1O [GDF, glycerol-3-di(dihydroferulate)]	interact only very little		
COc1cc(CCC(=O)O[C@H]2CO[C@H]3[C@@H]2OC[C@H]3OC(=O)CCc2ccc(O)c(OC)c2)ccc1O [IDF, isosorbide-2,5-(dihydroferulate)]	interact only very little		
COc1cc(CCC(=O)OCCCOC(=O)CCc2ccc(O)c(OC)c2)ccc1O [PDF, propane-1,3-di(dihydroferulate)]	interact only very little		
CC(C)(c1ccc(O)cc1)c1ccc(O)cc1 [bisphenol A, reference compound]		60	45
